Laboratory results: ChEMBL document CHEMBL1201862, “PubChem BioAssay data set” (2004)
Active and inactive are the calls of the source.

Columns and labels:
[1] = target: T1, Endoribonuclease toxin MazF (Escherichia coli K-12, UniProt P0AE70); assay: activation of MazEF endoribonuclease cleavage – biochemical, fluorescence, single-stranded RNA substrate, uHTS hits, dose response (AID 588481); type: functional
T1 sequence (P0AE70 whole entry): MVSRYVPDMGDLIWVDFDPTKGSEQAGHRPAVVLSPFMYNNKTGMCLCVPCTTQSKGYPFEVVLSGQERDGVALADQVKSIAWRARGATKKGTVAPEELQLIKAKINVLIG

[2] = target: UDP-galactopyranose mutase (Mycobacterium tuberculosis, UniProt P9WIQ1); assay: Inhibitors of Mycobacterium tuberculosis UDP-galactopyranose mutase (UGM) enzyme Measured in Biochemical System Using Plate Reader - 2105-02_Inhibitor_Dose_CherryPick_Activity. [Related pubchem assays (depositor defined):AID504439]
[3] = target: T1, Endoribonuclease toxin MazF; assay: substrate-only fluorescence increase artefacts – biochemical, single-stranded RNase substrate, counter-screen for MazEF activator project, dose response (AID 588502); type: functional
Jurkat = assay: SAR Analysis of small molecule inhibitors of […] specific antigen receptor-induced NF-kB activation in a Jurkat cell line using a luminescence assay - Set 3. [Related pubchem assays (depositor defined):AID435022, AID435025, AID465]; type: functional, cell-based; conditions: Homo sapiens
HEK293 [4] = assay: SAR Analysis of small molecule inhibitors of B-cell specific antigen receptor-induced NF-kB activation in a HEK-293T cell line using a luminescence assay - Set 2. [Related pubchem assays (depositor defined):AID435022, AID435025, AID489021]; type: functional, cell-based; conditions: Homo sapiens
HEK293 [5] = assay: HEK293T cell viability loss, resazurin readout – resazurin fluorescence, cytotoxicity control for NF-kB activator project, SAR follow-up (AID 493251); type: functional, cell-based; conditions: Homo sapiens
[6] = NIH-3T3 fibroblast cytotoxicity, dose response, cytotoxicity control, cell-based, fluorescence, Alamar Blue, secondary assay (AID 2327); type: functional;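 also: NIH-3T3 mouse fibroblasts cultured with fluconazole at 8 µg/mL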
[7] = target: E3 ubiquitin-protein ligase Mdm2 (Homo sapiens, UniProt Q00987); assay: MDM2-luc reporter signal enhancers, multi-concentration potency testing, MDM2 ubiquitin-protein ligase inhibitor program, whole-cell format, luminescence detection, 384-well microplate (AID 1394); type: functional;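 also: MDM2 E3 inhibitors raise luminescence so EC50 is for signal enhancement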
[8] = fluconazole-exposed Candida albicans growth modulators – fluorescence, retest, confirmation (AID 2467); type: functional, cell-based
[9] = target: T2, Serine/threonine-protein phosphatase (Candida dubliniensis (strain CD36 / CBS 7987 / NCPF 3949 / NRRLY-17841) (Yeast), UniProt B9W6M3); assay: blockers of CaCl2-induced CDRE-lacZ signaling – S. cerevisiae, luminescence, secondary, dose response (AID 2388); type: functional, cell-based;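 also: yeast reporter cells carrying a calcineurin-responsive lacZ construct stimulated with calcium chloride; luminescent beta-galactosidase reporter signal in whole cells rather than isolated phosphatase activity; potency for inhibition where a drop in reporter signal means calcineurin blockade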
T2 sequence (B9W6M3 whole entry): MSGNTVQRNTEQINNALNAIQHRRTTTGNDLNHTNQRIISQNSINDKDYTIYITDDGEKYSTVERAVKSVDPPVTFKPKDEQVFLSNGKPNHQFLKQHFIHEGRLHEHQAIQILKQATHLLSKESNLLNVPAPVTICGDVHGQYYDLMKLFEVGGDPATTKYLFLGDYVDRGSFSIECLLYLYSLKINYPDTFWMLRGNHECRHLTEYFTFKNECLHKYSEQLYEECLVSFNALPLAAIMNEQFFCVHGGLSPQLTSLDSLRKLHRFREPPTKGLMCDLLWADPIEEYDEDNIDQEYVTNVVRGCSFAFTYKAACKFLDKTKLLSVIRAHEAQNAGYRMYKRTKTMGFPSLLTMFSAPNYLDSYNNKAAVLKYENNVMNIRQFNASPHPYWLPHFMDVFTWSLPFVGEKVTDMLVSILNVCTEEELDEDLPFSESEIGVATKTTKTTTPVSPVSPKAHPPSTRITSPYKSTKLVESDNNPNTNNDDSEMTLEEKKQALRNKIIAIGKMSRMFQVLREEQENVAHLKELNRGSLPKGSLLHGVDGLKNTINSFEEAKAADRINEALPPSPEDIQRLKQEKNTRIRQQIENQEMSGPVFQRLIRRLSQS

Estrogen receptor = target: T3, Estrogen receptor (Homo sapiens, UniProt P03372); assay: ERα coactivator recruitment enhancers – biochemical, TR-FRET, ERα LBD, dose response (AID 737)
T3 sequence (P03372 whole entry): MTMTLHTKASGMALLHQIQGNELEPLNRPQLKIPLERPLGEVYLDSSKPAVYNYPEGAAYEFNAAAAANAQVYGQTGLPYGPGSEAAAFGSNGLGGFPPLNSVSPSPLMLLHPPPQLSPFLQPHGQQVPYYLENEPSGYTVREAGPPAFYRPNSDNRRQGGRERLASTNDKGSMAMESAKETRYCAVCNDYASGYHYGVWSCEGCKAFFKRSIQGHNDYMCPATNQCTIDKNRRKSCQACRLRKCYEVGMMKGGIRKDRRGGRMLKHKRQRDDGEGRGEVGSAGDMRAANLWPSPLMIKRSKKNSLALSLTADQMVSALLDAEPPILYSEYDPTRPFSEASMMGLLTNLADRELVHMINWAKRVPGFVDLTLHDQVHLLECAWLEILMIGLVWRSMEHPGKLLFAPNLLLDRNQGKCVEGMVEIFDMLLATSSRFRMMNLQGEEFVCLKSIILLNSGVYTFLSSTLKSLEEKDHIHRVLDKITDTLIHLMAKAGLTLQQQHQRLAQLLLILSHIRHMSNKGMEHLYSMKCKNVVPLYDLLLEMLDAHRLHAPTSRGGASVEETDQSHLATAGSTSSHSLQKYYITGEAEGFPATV

HEK293 [10] = assay: EBV LMP1 TES2 canonical NF-kB signalling blockers – cell-based, HEK293, luciferase, cherry-pick, dose response (AID 588343); type: functional; conditions: Homo sapiens
[11] = target: Heat shock protein HSP 90-alpha (Homo sapiens, UniProt P07900); type: functional, organism-based
[12] = target: T2, Serine/threonine-protein phosphatase; assay: Fluorescence Cell-Based Secondary Assay to Identify Inhibitors of Calcineurin. [Related pubchem assays (depositor defined):AID1979, AID2007]; type: functional
INS1 = assay: INS-1E survival protection against cytokine death – cell-based, luminescence, retest, dose response (AID 449756); type: functional; conditions: Rattus norvegicus;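 also: cell death triggered by IL-1 beta plus TNF-alpha plus IFN-gamma mixture; protective hits raise ATP signal compared with cytokine alone wells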
[13] = target: ATP-dependent molecular chaperone HSP82 (Candida albicans (strain WO-1) (Yeast), UniProt C4YTQ8); assay: steroid-induced GRE reporter decrease in yeast – S. cerevisiae, luminescence, Hsp90 inhibitor project, dose response (AID 2400); type: functional, cell-based;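 also: beta-galactosidase luminescence from glucocorticoid response element reporter as proxy for Hsp90 function; inhibitor potency where signal loss means Hsp90 inhibition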
[14] = reduction of Shn3 3'UTR-driven luciferase in osteoblasts – cell-based, Clone20 osteoblasts, firefly luciferase, cherry-picked, dose response (AID 624132); type: functional;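 also: firefly luciferase luminescence from reporter carrying the Shn3 3'UTR in osteoblasts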
[15] = mammalian cell viability loss – Alamar Blue, dry powder, cytotoxicity control for antifungal single agent project, dose response (AID 602188); type: functional, cell-based
[16] = loss of viability in HepG2 cells – cell-based, CellTiter-Glo, cherry-picked, cytotoxicity control for Shn3 inhibitor project, dose response (AID 624134); type: functional
[17] = non-specific 3'UTR reporter inhibition in Clone20-Shn3RL – cell-based, Renilla luciferase, cherry-picked, counter-screen for Shn3 inhibitor project, dose response (AID 624133); type: functional

Chain of UDP-galactopyranose mutase (P9WIQ1 whole entry): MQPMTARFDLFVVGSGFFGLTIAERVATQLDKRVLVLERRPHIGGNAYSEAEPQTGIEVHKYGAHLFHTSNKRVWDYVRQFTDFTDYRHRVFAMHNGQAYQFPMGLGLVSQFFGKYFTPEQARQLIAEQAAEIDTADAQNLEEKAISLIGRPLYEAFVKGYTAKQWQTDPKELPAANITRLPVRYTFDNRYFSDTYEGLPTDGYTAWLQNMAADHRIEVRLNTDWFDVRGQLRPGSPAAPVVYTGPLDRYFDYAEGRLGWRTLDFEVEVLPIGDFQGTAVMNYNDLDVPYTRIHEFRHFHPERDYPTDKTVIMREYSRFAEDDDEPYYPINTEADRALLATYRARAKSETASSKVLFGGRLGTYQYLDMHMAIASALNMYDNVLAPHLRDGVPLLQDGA
Chain of E3 ubiquitin-protein ligase Mdm2 (Q00987 whole entry): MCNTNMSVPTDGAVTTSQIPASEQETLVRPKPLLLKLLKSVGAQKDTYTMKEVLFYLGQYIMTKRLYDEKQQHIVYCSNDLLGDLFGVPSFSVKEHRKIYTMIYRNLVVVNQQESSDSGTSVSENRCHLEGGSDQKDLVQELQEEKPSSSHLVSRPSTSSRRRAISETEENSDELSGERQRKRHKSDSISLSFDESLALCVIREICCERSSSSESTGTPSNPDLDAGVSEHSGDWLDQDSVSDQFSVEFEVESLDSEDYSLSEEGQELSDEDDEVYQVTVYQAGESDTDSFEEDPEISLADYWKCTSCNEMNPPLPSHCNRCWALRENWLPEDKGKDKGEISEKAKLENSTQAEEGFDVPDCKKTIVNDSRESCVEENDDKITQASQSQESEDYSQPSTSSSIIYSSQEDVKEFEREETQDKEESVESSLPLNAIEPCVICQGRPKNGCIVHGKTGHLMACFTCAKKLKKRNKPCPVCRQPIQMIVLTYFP
Chain of ATP-dependent molecular chaperone HSP82 (C4YTQ8 whole entry): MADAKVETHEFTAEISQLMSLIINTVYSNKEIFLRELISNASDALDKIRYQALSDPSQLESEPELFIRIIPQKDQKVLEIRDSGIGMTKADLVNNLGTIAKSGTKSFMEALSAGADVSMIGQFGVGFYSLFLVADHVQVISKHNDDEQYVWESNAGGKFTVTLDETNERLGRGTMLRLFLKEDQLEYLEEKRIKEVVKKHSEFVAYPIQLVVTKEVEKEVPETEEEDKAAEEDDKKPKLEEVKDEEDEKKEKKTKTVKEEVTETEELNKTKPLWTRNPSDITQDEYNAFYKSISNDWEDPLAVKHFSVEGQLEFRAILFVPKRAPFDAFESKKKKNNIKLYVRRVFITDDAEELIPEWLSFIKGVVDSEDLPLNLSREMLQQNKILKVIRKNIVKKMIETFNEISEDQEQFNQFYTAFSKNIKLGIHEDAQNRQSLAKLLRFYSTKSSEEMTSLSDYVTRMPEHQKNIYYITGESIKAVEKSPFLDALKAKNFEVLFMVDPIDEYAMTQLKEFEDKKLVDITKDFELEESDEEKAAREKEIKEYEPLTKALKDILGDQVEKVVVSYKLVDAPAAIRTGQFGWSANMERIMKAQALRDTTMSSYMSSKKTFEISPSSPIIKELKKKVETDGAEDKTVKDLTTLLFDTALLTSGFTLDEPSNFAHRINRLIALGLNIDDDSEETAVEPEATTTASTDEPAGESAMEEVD

SMILES: Cc1cccc(N2C(=O)NC(=O)/C(=C/c3cc4c(cc3[N+](=O)[O-])OCO4)C2=O)c1
- EC50 [1]: > 99 µM (inactive)
- AC50 [2]: 45 µM (active)
- EC50 [3]: > 99 µM (inactive)

SMILES: CCOc1ccccc1NC(=O)CCc1nc(-c2ccc(C(C)(C)C)cc2)no1
- IC50 (Jurkat): 1.02 µM (active)
- IC50 (HEK293 [4]): 0.46 µM (active)
- IC50 (HEK293 [5]): > 80 µM (inactive)

SMILES: O=C(Nc1nc(-c2ccccn2)cs1)c1ccc(Br)s1
- EC50 [6]: > 160 µM (inactive)
- EC50 [7]: 22.7 µM (not active)
- EC50 [8]: 1.81 µM (active)
- EC50 [9]: > 180 µM (inactive)
- EC50 (Estrogen receptor): 24.5 µM (not active)
- AC50 (HEK293 [10]): 0.637 µM (active)
- AC50 [11]: 1.83 µM (active)
- EC50 [12]: 15.7 µM (active)
- AC50 (INS1): 1.03 µM (active)
- EC50 [13]: 4.31 µM (active)
- AC50 [14]: 1 µM (active)
- AC50 [15]: 0.991 µM (active)
- AC50 [16]: 3.78 µM (active)
- AC50 [17]: 0.743 µM (active)
